Test results from PMC12664493, “Asparagine endopeptidase (AEP) inhibitor formulation via zein-based nanoparticle improves the therapeutic efficacy toward Alzheimer's disease” (Neurotherapeutics, 2025).
Read-outs that look alike come from different tables or passages of the source.

Columns and labels:
Aβ plaques = experiment: Aβ PET (18F-AV45) in 3xTg mice after chronic treatment; format: in vivo, mouse; settings: 7.5 mg/kg P.O. daily, one month
Source text: Blood and brain tissues were collected at 0, 0.08, 0.25, 0.5, 1, 2, 4, and 8 h post-administration. For acute pharmacodynamic (PD) assessments, male and female 3xTg mice received oral doses of NP-11a-isopropyl at 7.5 mg/kg or 15 mg/kg, and blood and brain samples were collected 2 h after treatment.
Mice were maintained under isoflurane inhalation anesthesia during all procedures to ensure stable physiological conditions for radiochemical administration, imaging, and data processing. PET imaging was conducted using a high-resolution small-animal scanner (microPET; spatial resolution: 1.0 mm). Following intravenous administration of 10–15 MBq of ^18F-florbetapir (AV45) in 100 μL saline via the tail vein, 20-min volumetric brain emission scans were acquired. Image reconstruction was performed using ordered-subset expectation maximization (OSEM) to optimize spatial resolution and signal-to-noise ratios. For quantitative analysis, standardized uptake value ratios (SUVRs) were calculated by normalizing 18F-AV45 uptake in target regions to the cerebellar reference tissue. A predefined volumetric region of interest (VOI) template was applied to ensure consistent anatomical localization across subjects. SUVR data were statistically analyzed using Amide 1.0.4–1 (San Diego, CA, USA), with results reported for cortical and subcortical regions implicated in amyloid pathology.

Solubility (pH 7.4, PBS) = format: physicochemical
Caco-2 permeability = format: in vitro ADME; settings: human
BCRP = target: T1, BCRP (Homo sapiens, UniProt Q9UNQ0); experiment: Caco-2-BCRP assay with and without Ko143; format: in vitro ADME; settings: for Papp A→B / Papp B→A / recovery: human
T1 construct: endogenous in cells; host or cells: Caco-2
T1 sequence (Q9UNQ0 1-655): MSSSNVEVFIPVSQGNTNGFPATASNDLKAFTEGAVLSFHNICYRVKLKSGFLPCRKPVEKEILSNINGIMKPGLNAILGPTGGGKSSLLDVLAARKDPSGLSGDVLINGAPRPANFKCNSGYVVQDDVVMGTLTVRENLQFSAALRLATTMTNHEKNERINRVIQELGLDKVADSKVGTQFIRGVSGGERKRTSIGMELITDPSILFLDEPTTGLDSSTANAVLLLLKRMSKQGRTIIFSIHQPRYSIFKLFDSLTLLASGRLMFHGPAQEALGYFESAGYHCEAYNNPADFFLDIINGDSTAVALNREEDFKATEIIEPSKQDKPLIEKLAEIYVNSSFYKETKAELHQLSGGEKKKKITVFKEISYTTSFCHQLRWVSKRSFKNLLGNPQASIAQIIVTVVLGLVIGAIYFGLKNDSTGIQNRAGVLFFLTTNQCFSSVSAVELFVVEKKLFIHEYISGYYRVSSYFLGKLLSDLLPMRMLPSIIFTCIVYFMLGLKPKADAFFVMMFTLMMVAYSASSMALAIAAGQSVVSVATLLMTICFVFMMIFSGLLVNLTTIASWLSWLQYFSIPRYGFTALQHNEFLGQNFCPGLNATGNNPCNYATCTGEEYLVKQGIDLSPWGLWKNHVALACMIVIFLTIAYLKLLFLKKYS

AEP = target: T2, AEP (Rattus norvegicus, UniProt Q9R0J8); experiment: AEP inhibition in cultured primary neurons; format: cell-based
T2 construct: endogenous in cells; host or cells: primary rat cortical neurons
T2 sequence (Q9R0J8 18-435): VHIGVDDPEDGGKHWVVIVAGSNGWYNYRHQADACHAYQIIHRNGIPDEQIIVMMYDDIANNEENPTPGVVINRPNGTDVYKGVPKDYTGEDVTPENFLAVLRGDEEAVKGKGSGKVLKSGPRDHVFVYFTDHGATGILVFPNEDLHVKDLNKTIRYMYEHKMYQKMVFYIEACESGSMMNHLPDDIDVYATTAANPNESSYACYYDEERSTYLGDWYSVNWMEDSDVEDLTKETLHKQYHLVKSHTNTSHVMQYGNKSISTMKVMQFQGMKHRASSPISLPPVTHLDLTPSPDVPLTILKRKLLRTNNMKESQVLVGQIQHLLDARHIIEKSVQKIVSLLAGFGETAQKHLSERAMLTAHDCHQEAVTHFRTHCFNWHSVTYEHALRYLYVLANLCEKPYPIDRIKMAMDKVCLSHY

[1] = Stability in mouse plasma; format: in vitro ADME; settings: read-out: Stability-Plasma T1/2
[2] = Stability in mouse hepatocytes; format: in vitro ADME
[3] = Plasma and brain concentrations after acute oral treatment of 3xTg mice; format: in vivo; settings: both sexes, mouse
Source text: Blood and brain tissues were collected at 0, 0.08, 0.25, 0.5, 1, 2, 4, and 8 h post-administration.

Structure (SMILES): CC(C)Nc1nnc(Nc2cc(CO)c(N3CCOCC3)c3nonc23)s1 [11a-isopropyl]
- Aβ PET (18F-AV45) SUVR (Aβ plaques): significantly decreasing the PET signals
- solubility (Solubility (pH 7.4, PBS); aqueous buffer, pH 7.4, read-out: Solubility (pH, media)): 2450 µg/mL
- solubility (Solubility (pH 7.4, PBS); pH 7.4, aqueous buffer, pH7.4, read-out: Solubility (pH, media)): 6.25 mM
- Papp A→B (Caco-2 permeability; a-b, first value of the cell): 6.34 ×10⁻⁶ cm/s
- Papp B→A (Caco-2 permeability; value after the slash, head names only a-b, read-out: Permeability-Caco-2 Papp, second value of the cell (taken as b-a)): 23.6 ×10⁻⁶ cm/s
- BCRP substrate classification (BCRP): not a significant substrate of BCRP
- Papp A→B (BCRP; Caco-2, with Ko143 2 μM): 15.7 ×10⁻⁶ cm/s
- Papp B→A (BCRP; Caco-2, with Ko143 2 μM): 35.7 ×10⁻⁶ cm/s
- recovery (BCRP; Caco-2, with Ko143 2 μM, Ko143 2 μM, read-out: Recovery (%) A→B): 107%
- recovery (BCRP; Caco-2, with Ko143 2 μM, Ko143 2 μM, read-out: Recovery (%) B→A): 98.5%
- Papp A→B (BCRP; Caco-2, Ko143 0 μM): 12.1 ×10⁻⁶ cm/s
- Papp B→A (BCRP; Caco-2, Ko143 0 μM): 35.7 ×10⁻⁶ cm/s
- recovery (BCRP; Caco-2, Ko143 0 μM, read-out: Recovery (%) A→B): 91.8%
- recovery (BCRP; Caco-2, Ko143 0 μM, read-out: Recovery (%) B→A): 104%
- IC50 (AEP): 63 nM
- half-life [1]: > 8 h
- hepatocyte CLint [2]: 9 µL/min/1e6 cells
- half-life ([2]; read-out: Stability-Hepatocytes T1/2): 2.55 h
- concentration at 2 h ([3]; brain, 7.5 mg/kg, 11a-isopropyl level in the brain, P.O. 7.5 mg/kg): 14.4 ng/mL
- concentration at 2 h ([3]; brain, 7.5 mg/kg, P.O. 7.5 mg/kg, read-out: Concentration in brain, Brain Mean): 14.4 ng/g
- concentration at 2 h ([3]; brain, 7.5 mg/kg, P.O. 7.5 mg/kg, read-out: Concentration in brain, Brain Sample (single animal)): 14.4 ng/g
- concentration at 2 h ([3]; brain, 15 mg/kg, P.O. 15 mg/kg, read-out: Concentration in brain, Brain Sample (single animal)): 39.3 ng/g
- concentration at 2 h ([3]; plasma, 7.5 mg/kg, P.O. 7.5 mg/kg, read-out: Concentration in plasma, Serum Mean): 74.9 ng/mL
